Test results reported in ChEMBL document CHEMBL1201862, “PubChem BioAssay data set” (2004).
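All cell lines were grown in 96-well plates and treated with compound for 48 hours. GI50 = concentration required for 50% inhibition of growth.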 The source made the active and inactive calls. Cut-off read from the data, not from the text of the source: active = GI50 up to about 1.1 µM and inactive = higher.

What was measured:
Test in all cases: NCI-60 cell line screen, 48 h
A549 = tested on: A549
CCRF-CEM = tested on: CCRF-CEM
HCT-116 = tested on: HCT-116
HOP-92 = tested on: HOP-92
HT-29 = tested on: HT-29
IGROV-1 = tested on: IGROV-1
K562 = tested on: K562
MCF7 = tested on: MCF7
NCI-H23 = tested on: NCI-H23
OVCAR-3 = tested on: OVCAR-3
OVCAR-8 = tested on: OVCAR-8
PC-3 = tested on: PC-3
RPMI-8226 = tested on: RPMI-8226
SK-MEL-28 = tested on: SK-MEL-28
SK-MEL-2 = tested on: SK-MEL-2
T47D = tested on: T47D
TK-10 = tested on: TK-10
UACC-257 = tested on: UACC-257
UACC-62 = tested on: UACC-62
UO-31 = tested on: UO-31

Row | Structure (SMILES) | GI50 (A549) | GI50 (CCRF-CEM) | GI50 (HCT-116) | GI50 (HOP-92) | GI50 (HT-29) | GI50 (IGROV-1) | GI50 (K562) | GI50 (MCF7) | GI50 (NCI-H23) | GI50 (OVCAR-3) | GI50 (OVCAR-8) | GI50 (PC-3) | GI50 (RPMI-8226) | GI50 (SK-MEL-28) | GI50 (SK-MEL-2) | GI50 (T47D) | GI50 (TK-10) | GI50 (UACC-257) | GI50 (UACC-62) | GI50 (UO-31)
1 | O=c1[nH]cc(/N=C/c2cc(Cl)ccc2O)c(=O)[nH]1 | > 100 µM (inactive) | 2.26 µM (inactive) | 9.02 µM (inactive) | 11.2 µM (inactive) | 31.3 µM (inactive) | 7.83 µM (inactive) | 7.26 µM (inactive) | 17.7 µM (inactive) | 19 µM (inactive) | 17.5 µM (inactive) | 4.35 µM (inactive) | 8.83 µM (inactive) | 5.93 µM (inactive) | 13.6 µM (inactive) | 19.1 µM (inactive) | 14.8 µM (inactive) | > 100 µM (inactive) | 58.7 µM (inactive) | 21.9 µM (inactive) | 29.6 µM (inactive)
2 | Cc1ccc(OCC2OC(n3cnc4nc(Cl)nc(Cl)c43)CC2Oc2ccc(C)cc2)cc1 (stereo not given) | 27.3 µM (inactive) | 2.99 µM (inactive) | 4.55 µM (inactive) | 2.69 µM (inactive) | 5.85 µM (inactive) | 5.36 µM (inactive) | 1.95 µM (inactive) | 5.61 µM (inactive) | 7.71 µM (inactive) | 6.38 µM (inactive) | 13.1 µM (inactive) | 11.6 µM (inactive) | 2.62 µM (inactive) | 3.65 µM (inactive) | 4.98 µM (inactive) | 6.19 µM (inactive) | 13.8 µM (inactive) | 12.9 µM (inactive) | 6.04 µM (inactive) | 10.1 µM (inactive)
3 | Nc1ccn(C2CCC(CO)O2)c(=O)n1 (stereo not given) | > 100 µM (inactive) | 46.5 µM (inactive) | > 100 µM (inactive) | > 100 µM (inactive) | > 100 µM (inactive) | > 100 µM (inactive) | > 100 µM (inactive) | 99.8 µM (inactive) | > 100 µM (inactive) | > 100 µM (inactive) | 156 µM (inactive) | > 1000 µM (inactive) | > 100 µM (inactive) | > 100 µM (inactive) | > 100 µM (inactive) | > 1000 µM (inactive) | > 1000 µM (inactive) | > 100 µM (inactive) | > 100 µM (inactive) | 836 µM (inactive)
4 | CCN(CC)Cc1nc2sc3c(c2c(=O)n1-c1ccccc1)CCCC3 | 20.5 µM (inactive) | 28.4 µM (inactive) | 18.7 µM (inactive) | 22 µM (inactive) | 12.9 µM (inactive) | 18.7 µM (inactive) | 35.2 µM (inactive) | 17.5 µM (inactive) | 35.1 µM (inactive) | 17.2 µM (inactive) | 17.5 µM (inactive) | 15.9 µM (inactive) | 26.7 µM (inactive) | 35.4 µM (inactive) | 19.1 µM (inactive) | 18.8 µM (inactive) | 16.4 µM (inactive) | 21.2 µM (inactive) | 15.4 µM (inactive) | 11.2 µM (inactive)
5 | CCC1(c2ccc(N3C(=O)c4cccc5cc([N+](=O)[O-])cc(c45)C3=O)cc2)CCC(=O)NC1=O (stereo not given) | 55.5 µM (inactive) | 7.74 µM (inactive) | 5.42 µM (inactive) | 2.16 µM (inactive) | 20.5 µM (inactive) | 5.4 µM (inactive) | 17.1 µM (inactive) | 29.9 µM (inactive) | 25.5 µM (inactive) | 20.7 µM (inactive) | 12 µM (inactive) | 20.9 µM (inactive) | 11.6 µM (inactive) | 22.2 µM (inactive) | > 100 µM (inactive) | 24.4 µM (inactive) | 33 µM (inactive) | 47.6 µM (inactive) | 21 µM (inactive) | 4.44 µM (inactive)
6 | CCC1(O)CC(OC2CC(N(C)C)C(OC3CC(O)C(OC4CCC(=O)C(C)O4)C(C)O3)C(C)O2)c2c(cc3c(c2O)C(=O)c2c(O)ccc(O)c2C3=O)C1C(=O)OC (stereo not given) | < 0.01 µM (active) | < 0.01 µM (active) | < 0.01 µM (active) | < 0.01 µM (active) | < 0.01 µM (active) | < 0.01 µM (active) | < 0.01 µM (active) | < 0.01 µM (active) | < 0.01 µM (active) | 0.0101 µM (active) | < 0.01 µM (active) | < 0.01 µM (active) | < 0.01 µM (active) | < 0.01 µM (active) | < 0.01 µM (active) | < 0.01 µM (active) | < 0.01 µM (active) | < 0.01 µM (active) | < 0.01 µM (active) | < 0.01 µM (active)
7 | Nc1ccc(CCSSCCc2ccc(N)cc2)cc1 | 35.1 µM (inactive) | 1.38 µM (inactive) | 16.1 µM (inactive) | 34.5 µM (inactive) | 21.8 µM (inactive) | 37.1 µM (inactive) | 6.4 µM (inactive) | 29.7 µM (inactive) | 29.7 µM (inactive) | 31.6 µM (inactive) | 28 µM (inactive) | 29.4 µM (inactive) | 25.1 µM (inactive) | 28.3 µM (inactive) | 20.2 µM (inactive) | 35.6 µM (inactive) | 36.1 µM (inactive) | 20 µM (inactive) | 26.5 µM (inactive) | 22.7 µM (inactive)
8 | CC1=NN(C(=O)CC(=O)Nc2ccc(C)cc2)C(=O)C1/N=N/c1ccc(C(=O)O)cc1 (stereo not given) | > 100 µM (inactive) | > 100 µM (inactive) | > 100 µM (inactive) | > 100 µM (inactive) | > 100 µM (inactive) | > 100 µM (inactive) | > 100 µM (inactive) | > 100 µM (inactive) | > 100 µM (inactive) | > 100 µM (inactive) | > 100 µM (inactive) | > 100 µM (inactive) | > 100 µM (inactive) | > 100 µM (inactive) | > 100 µM (inactive) | > 100 µM (inactive) | > 100 µM (inactive) | > 100 µM (inactive) | > 100 µM (inactive) | 55.8 µM (inactive)
9 | Cc1ncc(CO)c(/C=N/CCCCCC/N=C/c2c(CO)cnc(C)c2[O-])c1[O-].[Mg+2] | > 100 µM (inactive) | 36.2 µM (inactive) | > 100 µM (inactive) | > 44.6 µM (inactive) | > 100 µM (inactive) | > 100 µM (inactive) | > 100 µM (inactive) | > 60.1 µM (inactive) | > 100 µM (inactive) | > 100 µM (inactive) | > 67.9 µM (inactive) | > 100 µM (inactive) | > 100 µM (inactive) | > 100 µM (inactive) | > 100 µM (inactive) | > 100 µM (inactive) | > 100 µM (inactive) | > 100 µM (inactive) | > 100 µM (inactive) | > 100 µM (inactive)
